Assays:
Assay in all cases: relative viability (nuclei count vs DMSO), 5 days (fraction); higher = more cells survive
[1] = compound: C1CC2=C(C1)C=C(C=C2)OC3=NC(=C4C(=N3)N(C=N4)CC5=CC=C(C=C5)C6=CC=CC=C6)N[C@@H](CC7=CC=CC=C7)CO [QS11] + Cc1nc(Nc2ncc(C(=O)Nc3c(C)cccc3Cl)s2)cc(N2CCN(CCO)CC2)n1 [Dasatinib] (partner 0.075 µM)
Summary of the method: (§1)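 A single step with final 0.05% Triton X-100, 1% formaldehyde and 1 ug/ml Hoechst fixed the cells and stained nuclei 5 days after treatment. Lung cancer cell lines in 1536-well plates had been treated by pin tool the day after seeding with one drug alone or a fixed anchor-drug dose plus five library-drug doses (not always all listed) in √10 steps, and nuclei were counted on 4× images. Relative viability is the ratio of nuclei in treated wells to nuclei in vehicle wells, taken as the median of duplicate plates.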

[2] = compound: CC1=C(C=C(C=C1)NC(=O)C2=CC(=CC=C2)C(C)(C)C#N)NC3=CC4=C(C=C3)N=CN(C4=O)C [AZ628] + COc1cccc2cc(-c3nc([C@H]4CC[C@H](C(=O)O)CC4)n4ncnc(N)c34)[nH]c12 [OSI-027] (partner 0.5 µM)
Summary of the method: as §1

[3] = compound: CC1=C(C=C(C=C1)NC(=O)C2=CC(=CC=C2)C(C)(C)C#N)NC3=CC4=C(C=C3)N=CN(C4=O)C [AZ628] + NC(=O)Nc1cc(-c2cccc(F)c2)sc1C(=O)N[C@H]1CCCNC1 [AZD7762] (partner 0.2 µM)
Summary of the method: as §1

[4] = compound: C1CC2=C(C1)C=C(C=C2)OC3=NC(=C4C(=N3)N(C=N4)CC5=CC=C(C=C5)C6=CC=CC=C6)N[C@@H](CC7=CC=CC=C7)CO [QS11] + CC(=O)c1c(C)c2cnc(Nc3ccc(N4CCNCC4)cn3)nc2n(C2CCCC2)c1=O [Palbociclib] (partner 0.5 µM)
Summary of the method: as §1

Row | Cell Line | relative viability ([1]; first compound 0.08 µM) | relative viability ([1]; first compound 0.253 µM) | relative viability ([1]; first compound 2.53 µM) | relative viability ([1]; first compound 8 µM) | relative viability ([2]; first compound 0.08 µM) | relative viability ([2]; first compound 0.253 µM) | relative viability ([2]; first compound 0.8 µM) | relative viability ([2]; first compound 2.53 µM) | relative viability ([2]; first compound 8 µM) | relative viability ([3]; first compound 0.08 µM) | relative viability ([3]; first compound 0.253 µM) | relative viability ([3]; first compound 0.8 µM) | relative viability ([3]; first compound 2.53 µM) | relative viability ([3]; first compound 8 µM) | relative viability ([4]; first compound 0.08 µM) | relative viability ([4]; first compound 0.253 µM) | relative viability ([4]; first compound 0.8 µM) | relative viability ([4]; first compound 2.53 µM) | relative viability ([4]; first compound 8 µM) | relative viability ([1]; first compound 0.8 µM)
1 | H3255 | 0.319 | 0.394 | 0.369 | 0.402 | 0.64 | 0.484 | 0.564 | 0.584 | 0.323 | 0.852 | 0.726 | 0.806 | 1.01 | 0.684 | 0.327 | 0.363 | 0.301 | 0.31 | 0.298 | –
2 | LOU-NH91 | 0.56 | 0.51 | 0.628 | 0.602 | 0.72 | 0.712 | 0.651 | 0.664 | 0.569 | 0.75 | 0.712 | 0.727 | 0.68 | 0.603 | 0.527 | 0.536 | 0.513 | 0.58 | 0.629 | 0.524
3 | NCI-H2126 | 0.604 | 0.505 | 0.61 | 0.566 | 0.793 | 0.655 | 0.651 | 0.728 | 0.594 | 1.08 | 0.945 | 0.775 | 1.01 | 0.984 | 0.345 | 0.381 | 0.341 | 0.343 | 0.304 | 0.616
4 | PC-14 | 0.223 | 0.201 | 0.26 | 0.15 | 0.727 | 0.956 | 0.733 | 0.666 | 0.329 | 0.48 | 0.324 | 0.338 | 0.316 | 0.296 | – | 0.608 | 0.455 | 0.44 | 0.434 | 0.289
5 | EMC-BAC-2 | 0.341 | 0.337 | 0.285 | 0.269 | 0.397 | 0.425 | 0.477 | 0.436 | 0.448 | 1.16 | 1.09 | 1.18 | 1.13 | 1.28 | 0.515 | 0.545 | 0.43 | 0.443 | 0.406 | 0.376
6 | HCC-78 | 0.432 | 0.395 | 0.558 | 0.67 | 0.427 | 0.37 | 0.391 | 0.341 | 0.399 | 0.808 | 0.663 | 0.644 | 0.85 | 0.787 | 0.462 | 0.531 | 0.464 | 0.457 | 0.358 | 0.491
7 | SK-LU-1 | 0.175 | 0.158 | 0.167 | 0.169 | – | 0.315 | 0.276 | 0.33 | 0.208 | – | – | – | – | – | 0.345 | 0.419 | 0.336 | 0.365 | 0.376 | 0.172
8 | ABC-1 | 0.577 | 0.436 | 0.605 | 0.571 | 0.644 | 0.402 | 0.53 | 0.491 | 0.297 | 0.761 | 0.786 | 0.768 | 0.865 | 0.745 | 0.805 | 0.782 | 0.652 | 0.64 | 0.5 | –
9 | LK-2 | 0.287 | 0.321 | 0.268 | 0.306 | 0.191 | 0.234 | 0.234 | 0.187 | 0.198 | 0.526 | 0.354 | 0.273 | 0.357 | 0.259 | 0.723 | 0.826 | 0.777 | 0.507 | 0.705 | 0.317
10 | NCI-H23 | 0.809 | 0.673 | 0.654 | 0.712 | 0.568 | 0.528 | 0.464 | 0.474 | 0.309 | 0.226 | 0.23 | 0.151 | 0.184 | 0.146 | 0.492 | 0.387 | 0.354 | 0.347 | 0.329 | 0.738
11 | NCI-H2228 | 0.415 | 0.521 | 0.725 | 0.677 | 0.627 | 0.521 | 0.519 | 0.623 | 0.281 | – | – | – | – | – | 0.753 | 0.741 | 1.06 | 0.641 | 1.01 | 0.55
12 | NCI-H441 | 0.802 | 0.689 | 0.786 | 0.827 | 0.801 | 0.558 | 0.634 | 0.588 | 0.492 | 1.41 | 0.841 | 0.911 | 1.1 | 0.655 | 0.213 | 0.244 | 0.255 | 0.201 | 0.227 | 0.496
13 | NCI-H460 | 0.523 | 0.462 | 0.359 | 0.291 | 0.738 | 0.64 | 0.259 | 0.429 | 0.107 | 0.51 | 0.589 | 0.627 | 0.672 | 0.596 | 0.426 | 0.093 | 0.0461 | 0.0817 | 0.0731 | 0.329
14 | LU99A | 0.463 | 0.587 | 0.684 | 0.681 | 0.271 | 0.313 | 0.268 | 0.288 | 0.239 | 0.436 | 0.363 | 0.415 | 0.33 | 0.22 | 0.421 | 0.469 | 0.437 | 0.4 | 0.395 | 0.685
15 | NCI-H358 | 0.144 | 0.171 | 0.393 | 0.656 | 0.647 | 0.602 | 0.403 | 0.354 | 0.286 | 0.499 | 0.405 | 0.367 | 0.412 | 0.302 | 0.132 | 0.128 | 0.134 | 0.159 | 0.118 | 0.189
16 | UMC-11 | 0.473 | 0.5 | 0.583 | 0.681 | 0.468 | 0.496 | 0.46 | 0.464 | 0.382 | – | – | – | – | – | 0.307 | 0.343 | 0.378 | 0.343 | 0.337 | 0.494
17 | LXF-289 | 0.228 | 0.263 | 0.291 | 0.191 | 0.812 | 0.763 | 0.736 | 0.74 | 0.434 | 1.12 | 1.08 | 0.98 | 1.06 | 0.652 | 0.639 | 0.634 | 0.502 | 0.564 | 0.621 | 0.241

— the supplement of paper PMC10307832
